The values below come from article PMC8908036, “N-Acetyldopamine dimers from Oxya chinensis sinuosa attenuates lipopolysaccharides induced inflammation and inhibits cathepsin C activity” (Computational and Structural Biotechnology Journal, 2022).

This assay addresses T1, cathepsin C (Mus musculus, UniProt P97821).
T1 construct: gene Ctsc
Put plainly: colorimetric enzyme inhibition with H-Gly-Phe-β-naphthylamide; Lineweaver-Burk kinetics and secondary plots (IC50 […]; Kis […]). The format is biochemical.

T1 sequence (P97821 25-134): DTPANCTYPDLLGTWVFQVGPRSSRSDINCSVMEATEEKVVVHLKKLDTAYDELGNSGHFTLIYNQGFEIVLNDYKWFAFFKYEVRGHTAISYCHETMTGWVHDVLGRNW
T1 sequence (P97821 231-462): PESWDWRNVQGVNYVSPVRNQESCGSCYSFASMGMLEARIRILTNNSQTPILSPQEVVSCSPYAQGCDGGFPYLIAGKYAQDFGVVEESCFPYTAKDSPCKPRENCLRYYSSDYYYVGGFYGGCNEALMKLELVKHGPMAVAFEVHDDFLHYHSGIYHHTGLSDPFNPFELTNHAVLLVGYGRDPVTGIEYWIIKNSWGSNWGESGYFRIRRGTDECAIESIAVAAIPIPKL

On to `CC(=O)NCCc1ccc2c(c1)O[C@H](c1ccc(O)c(O)c1)[C@@H](NC(C)=O)O2` [compound 1, (2R,3S)-2-(3′,4′-dihydroxyphenyl)-3-acetylamino-7-(N-acetyl-2″-aminoethyl)-1,4-benzodioxane], for which the inhibition constant (Ki) is 71.6 ± 10.2 µM.
